Results taken from the supplement of paper PMC6045584.
± gives the standard deviation of the averaged measurements.

Legend:
[1] = compound: CC(=O)NCC(=O)N1[C@@H]2CC[C@H]1c1ccc(Nc3ncc(C(F)(F)F)c(NC4CCC4)n3)cc12; assay: surviving fraction relative to DMSO-only wells; higher = less growth inhibition; conditions: exposure time: 5 days
Method in brief: (§1)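 Continuous five-day exposure to inhibitors at 0.5, 1, 5, 10, 50, 100, 500 and 1000 nM started 24 hours after log-phase tumour cell lines were seeded at 250–500 cells per well in 384-well plates. Luminescence was read after 10 minutes at room temperature. Viability is given as surviving fraction, meaning CellTiter-Glo luminescence normalised to the median of DMSO-only wells.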

PACLITAXEL [2] = compound: T1, CC(=O)O[C@H]1C(=O)[C@@]2(C)[C@H]([C@H](OC(=O)c3ccccc3)[C@]3(O)C[C@H](OC(=O)[C@H](O)[C@@H](NC(=O)c4ccccc4)c4ccccc4)C(C)=C1C3(C)C)[C@]1(OC(C)=O)CO[C@@H]1C[C@@H]2O [PACLITAXEL]; assay: as above; conditions: exposure time: 5 days
Method in brief: as §1

[3] = compound: CC(=O)c1c(C)c2cnc(Nc3ccc(N4CCNCC4)cn3)nc2n(C2CCCC2)c1=O; assay: as above; conditions: exposure time: 5 days
Method in brief: as §1

CAMPTOTHECIN [4] = compound: T2, CC[C@@]1(O)C(=O)OCc2c1cc1n(c2=O)Cc2cc3ccccc3nc2-1 [CAMPTOTHECIN]; assay: as above; conditions: exposure time: 5 days
Method in brief: as §1

YM155 [5] = compound: T3, COCC[n+]1c2c(n(Cc3cnccn3)c1C)C(=O)c1ccccc1C2=O [YM155]; assay: as above; conditions: exposure time: 5 days
Method in brief: as §1

GEFITINIB [6] = compound: T4, COc1cc2ncnc(Nc3ccc(F)c(Cl)c3)c2cc1OCCCN1CCOCC1 [GEFITINIB]; assay: as above; conditions: exposure time: 5 days
Method in brief: as §1

OSI-906 [7] = compound: T5, C[C@]1(O)C[C@@H](c2nc(-c3ccc4ccc(-c5ccccc5)nc4c3)c3c(N)nccn32)C1 [OSI-906]; assay: as above; conditions: exposure time: 5 days
Method in brief: as §1

CELECOXIB [8] = compound: T6, Cc1ccc(-c2cc(C(F)(F)F)nn2-c2ccc(S(N)(=O)=O)cc2)cc1 [CELECOXIB]; assay: as above; conditions: exposure time: 5 days
Method in brief: as §1

CARBOPLATIN [9] = compound: T7, O=C(O)C1(C(=O)O)CCC1.[NH2-].[NH2-].[Pt+2] [CARBOPLATIN]; assay: as above; conditions: exposure time: 5 days
Method in brief: as §1

[10] = compound: CC(=O)NCC(=O)N1[C@@H]2CC[C@H]1c1ccc(Nc3ncc(C(F)(F)F)c(NC4CCC4)n3)cc12; assay: area under dose-response curve of surviving fraction (unscaled, Aref=0) (surviving fraction x log10(nM)); higher = more resistant; conditions: exposure time: 5 days; dose range 0.5-1000 nM
Method in brief: (§2)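 Three screens per tumour cell line were run in 384-well plates at eight inhibitor concentrations from 0.5 to 1000 nM over five days. Surviving fractions, from CellTiter-Glo luminescence normalised to DMSO-only wells, were fitted with 3-parameter logistic curves in the drc R package. The reported area under the curve is the unscaled activity area. It spans log10 dose, and Aref is 0.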

PACLITAXEL [11] = compound: T1, PACLITAXEL; assay: as above; conditions: exposure time: 5 days; dose range 0.5-1000 nM
Method in brief: as §2

[12] = compound: CC(=O)c1c(C)c2cnc(Nc3ccc(N4CCNCC4)cn3)nc2n(C2CCCC2)c1=O; assay: as above; conditions: exposure time: 5 days; dose range 0.5-1000 nM
Method in brief: as §2

CAMPTOTHECIN [13] = compound: T2, CAMPTOTHECIN; assay: as above; conditions: exposure time: 5 days; dose range 0.5-1000 nM
Method in brief: as §2

YM155 [14] = compound: T3, YM155; assay: as above; conditions: exposure time: 5 days; dose range 0.5-1000 nM
Method in brief: as §2

GEFITINIB [15] = compound: T4, GEFITINIB; assay: as above; conditions: exposure time: 5 days; dose range 0.5-1000 nM
Method in brief: as §2

OSI-906 [16] = compound: T5, OSI-906; assay: as above; conditions: exposure time: 5 days; dose range 0.5-1000 nM
Method in brief: as §2

CELECOXIB [17] = compound: T6, CELECOXIB; assay: as above; conditions: exposure time: 5 days; dose range 0.5-1000 nM
Method in brief: as §2

CARBOPLATIN [18] = compound: T7, CARBOPLATIN; assay: as above; conditions: exposure time: 5 days; dose range 0.5-1000 nM
Method in brief: as §2

## HSSYII SYNOVIAL
[1]; 0.5 nM
  surviving fraction: 0.921 ± 0.035
[1]; 1 nM
  surviving fraction: 0.8998 ± 0.0079
[1]; 5 nM
  surviving fraction: 0.886 ± 0.044
[1]; 10 nM
  surviving fraction: 0.851 ± 0.05
[1]; 50 nM
  surviving fraction: 0.438 ± 0.017
[1]; 100 nM
  surviving fraction: 0.222 ± 0.015
[1]; 500 nM
  surviving fraction: 0.177 ± 0.015
[1]; 1000 nM
  surviving fraction: 0.185 ± 0.0066
PACLITAXEL [2]; 0.5 nM
  surviving fraction: 0.836 ± 0.0087
PACLITAXEL [2]; 1 nM
  surviving fraction: 0.558 ± 0.021
PACLITAXEL [2]; 5 nM
  surviving fraction: 0.0827 ± 0.011
PACLITAXEL [2]; 10 nM
  surviving fraction: 0.0622 ± 0.0043
PACLITAXEL [2]; 50 nM
  surviving fraction: 0.0613 ± 0.0025
PACLITAXEL [2]; 100 nM
  surviving fraction: 0.0585 ± 0.0041
PACLITAXEL [2]; 500 nM
  surviving fraction: 0.049 ± 0.0033
PACLITAXEL [2]; 1000 nM
  surviving fraction: 0.0538 ± 0.0021
[3]; 0.5 nM
  surviving fraction: 0.986 ± 0.015
[3]; 1 nM
  surviving fraction: 0.935 ± 0.028
[3]; 5 nM
  surviving fraction: 0.975 ± 0.035
[3]; 10 nM
  surviving fraction: 1 ± 0.019
[3]; 50 nM
  surviving fraction: 0.892 ± 0.045
[3]; 100 nM
  surviving fraction: 0.914 ± 0.07
[3]; 500 nM
  surviving fraction: 0.811 ± 0.013
[3]; 1000 nM
  surviving fraction: 0.737 ± 0.045
CAMPTOTHECIN [4]; 0.5 nM
  surviving fraction: 0.187 ± 0.025
CAMPTOTHECIN [4]; 1 nM
  surviving fraction: 0.686 ± 0.035
CAMPTOTHECIN [4]; 5 nM
  surviving fraction: 0.213 ± 0.011
CAMPTOTHECIN [4]; 10 nM
  surviving fraction: 0.12 ± 0.0066
CAMPTOTHECIN [4]; 50 nM
  surviving fraction: 0.0273 ± 0.0023
CAMPTOTHECIN [4]; 100 nM
  surviving fraction: 0.0507 ± 0.0042
CAMPTOTHECIN [4]; 500 nM
  surviving fraction: 0.0363 ± 0.001
CAMPTOTHECIN [4]; 1000 nM
  surviving fraction: 0.0383 ± 0.0038
YM155 [5]; 0.5 nM
  surviving fraction: 0.876 ± 0.058
YM155 [5]; 1 nM
  surviving fraction: 0.843 ± 0.014
YM155 [5]; 5 nM
  surviving fraction: 0.199 ± 0.0066
YM155 [5]; 10 nM
  surviving fraction: 0.0977 ± 0.011
YM155 [5]; 50 nM
  surviving fraction: 0.0352 ± 0.004
YM155 [5]; 100 nM
  surviving fraction: 0.027 ± 0.0035
YM155 [5]; 500 nM
  surviving fraction: 0.017 ± 0.0013
YM155 [5]; 1000 nM
  surviving fraction: 0.0215 ± 0.0017
GEFITINIB [6]; 0.5 nM
  surviving fraction: 1.04 ± 0.026
GEFITINIB [6]; 1 nM
  surviving fraction: 0.9723 ± 0.0083
GEFITINIB [6]; 5 nM
  surviving fraction: 1.05 ± 0.022
GEFITINIB [6]; 10 nM
  surviving fraction: 1.03 ± 0.047
GEFITINIB [6]; 50 nM
  surviving fraction: 1.03 ± 0.017
GEFITINIB [6]; 100 nM
  surviving fraction: 1.03 ± 0.067
GEFITINIB [6]; 500 nM
  surviving fraction: 0.995 ± 0.051
GEFITINIB [6]; 1000 nM
  surviving fraction: 0.98 ± 0.065
OSI-906 [7]; 0.5 nM
  surviving fraction: 0.8472 ± 0.0081
OSI-906 [7]; 1 nM
  surviving fraction: 0.85 ± 0.027
OSI-906 [7]; 5 nM
  surviving fraction: 0.9002 ± 0.0069
OSI-906 [7]; 10 nM
  surviving fraction: 0.798 ± 0.021
OSI-906 [7]; 50 nM
  surviving fraction: 0.814 ± 0.026
OSI-906 [7]; 100 nM
  surviving fraction: 0.746 ± 0.04
OSI-906 [7]; 500 nM
  surviving fraction: 0.673 ± 0.03
OSI-906 [7]; 1000 nM
  surviving fraction: 0.656 ± 0.026
CELECOXIB [8]; 0.5 nM
  surviving fraction: 1.04 ± 0.019
CELECOXIB [8]; 1 nM
  surviving fraction: 1.01 ± 0.014
CELECOXIB [8]; 5 nM
  surviving fraction: 0.979 ± 0.07
CELECOXIB [8]; 10 nM
  surviving fraction: 1.08 ± 0.028
CELECOXIB [8]; 50 nM
  surviving fraction: 1.02 ± 0.046
CELECOXIB [8]; 100 nM
  surviving fraction: 1.039 ± 0.0068
CELECOXIB [8]; 500 nM
  surviving fraction: 1.01 ± 0.066
CELECOXIB [8]; 1000 nM
  surviving fraction: 1.04 ± 0.036
CARBOPLATIN [9]; 0.5 nM
  surviving fraction: 0.965 ± 0.035
CARBOPLATIN [9]; 1 nM
  surviving fraction: 0.957 ± 0.015
CARBOPLATIN [9]; 5 nM
  surviving fraction: 0.975 ± 0.023
CARBOPLATIN [9]; 10 nM
  surviving fraction: 0.963 ± 0.089
CARBOPLATIN [9]; 50 nM
  surviving fraction: 0.965 ± 0.05
CARBOPLATIN [9]; 100 nM
  surviving fraction: 0.97 ± 0.016
CARBOPLATIN [9]; 500 nM
  surviving fraction: 0.959 ± 0.037
CARBOPLATIN [9]; 1000 nM
  surviving fraction: 0.958 ± 0.089
[10]
  area under dose-response curve: 1.97
PACLITAXEL [11]
  area under dose-response curve: 0.524
[12]
  area under dose-response curve: 3.04
CAMPTOTHECIN [13]
  area under dose-response curve: 0.531
YM155 [14]
  area under dose-response curve: 0.716
GEFITINIB [15]
  area under dose-response curve: 3.35
OSI-906 [16]
  area under dose-response curve: 2.6
CELECOXIB [17]
  area under dose-response curve: 3.39
CARBOPLATIN [18]
  area under dose-response curve: 3.19
